Starred links: 1 amine or outer side, 2 acyl side, 3 side chain; linkers in the order of their positions; H or OH if unused. Non-standard residues stand in square brackets, D forms with d. Residues, ends and D or L forms follow the SMILES beside them. Groups on a side chain read outwards from the residue. *: point of attachment. Ala(1H-tetrazol-5-yl) = N[C@@H](Cc1nnn[nH]1)C(=O)O; Gly(N-CH2CH2-imidazol-4-yl) = O=C(O)CNCCc1c[nH]cn1; C18 diacid = O=C(O)CCCCCCCCCCCCCCCCC(=O)*; X15 = O=C([C@H](CCc1nnn[nH]1)N[*:1])[*:2]; X8 = O=C([C@H](CCc1nn[nH]n1)N[*:1])[*:2]; Dip = N[C@H](C(=O)O)C(c1ccccc1)c1ccccc1; γGlu = O=C(O)[C@H](CCC(=O)[*:2])N[*:1]; His(τ-Me) = Cn1cnc(C[C@H](N)C(=O)O)c1; Palmitoyl = CCCCCCCCCCCCCCCC(=O)*; Myristoyl = CCCCCCCCCCCCCC(=O)*; β3hF = N[C@H](CC(=O)O)Cc1ccccc1; PEG4 = NCCOCCOCCOCCOCCC(=O)O; Decanoyl = CCCCCCCCCC(=O)*; Isovaleryl = CC(C)CC(=O)*; AEEA = NCCOCCOCC(=O)O; Ahx = NCCCCCC(=O)O; NHPr = CCCN*

Among the data in patent US20240066131A1 (Protagonist Therapeutics, Inc., priority 2020, published 2024) are DC50 values, retold here.

The target of the first assay is T1, ferroportin (Homo sapiens, UniProt Q9NP59).
T1 sequence (Q9NP59 1-571): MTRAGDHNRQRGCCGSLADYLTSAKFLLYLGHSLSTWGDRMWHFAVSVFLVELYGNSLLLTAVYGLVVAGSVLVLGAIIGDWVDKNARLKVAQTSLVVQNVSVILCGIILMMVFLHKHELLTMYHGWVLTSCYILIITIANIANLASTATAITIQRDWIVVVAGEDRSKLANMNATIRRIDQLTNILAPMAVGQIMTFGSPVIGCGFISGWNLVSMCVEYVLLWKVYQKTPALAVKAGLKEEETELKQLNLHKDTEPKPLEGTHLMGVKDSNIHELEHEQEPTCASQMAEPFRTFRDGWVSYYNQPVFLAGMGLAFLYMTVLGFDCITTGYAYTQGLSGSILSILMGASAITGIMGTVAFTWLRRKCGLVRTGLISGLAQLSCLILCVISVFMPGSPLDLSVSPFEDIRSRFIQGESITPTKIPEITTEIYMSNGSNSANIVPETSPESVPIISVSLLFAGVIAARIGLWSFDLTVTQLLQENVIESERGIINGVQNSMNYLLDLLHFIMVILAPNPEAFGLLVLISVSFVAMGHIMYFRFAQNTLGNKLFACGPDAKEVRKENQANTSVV
Put plainly: FPN activity assay: internalization/degradation of ferroportin-GFP in stably transfected HEK293 cells (loss of GFP fluorescence). The format is cell-based. Conditions: Table 6A; read-out: FPN EC50. Here is the method:
Following internalization, the ferroporin protein is degraded.
A retro inverse peptide is a peptide with a reversed sequence in all D amino acids. An example is that Hy-Glu-Thr-His-NH2 becomes Hy-DHis-DThr-DGlu-NH2. The EC50 of these reference compounds for ferroportin internalization/degradation was determined according to the FPN activity assay described above. These peptides served as control standards.
As to `CCCCCCCCCCCCCCCC(=O)NCCCCCC(=O)NCCCC[C@H](NC(=O)[C@@H](NC(=O)[C@@H](NC(=O)[C@@H]1CCCN1C(=O)[C@@H](NC(=O)[C@H](Cc1cn(C)cn1)NC(=O)[C@@H](NC(=O)[C@H](CCc1nn[nH]n1)NC(=O)CC(C)C)[C@@H](C)O)C(c1ccccc1)c1ccccc1)[C@@H](C)CC)[C@@H](C)CC)C(=O)N[C@H](CC(N)=O)Cc1ccccc1` [compound 117] (Isovaleryl-[X8]T[His(τ-Me)][Dip]PIIK([Ahx-Palmitoyl])[β3hF]-NH2), the DC50 was found to be 101 nM.
On the same count and under the same terms, then `CC[C@H](C)[C@H](NC(=O)[C@@H](NC(=O)[C@@H]1CCCN1C(=O)[C@@H](NC(=O)[C@H](Cc1c[nH]cn1)NC(=O)[C@@H](NC(=O)[C@H](CCC(=O)O)NC(=O)CNCC(=O)O)[C@@H](C)O)C(c1ccccc1)c1ccccc1)[C@@H](C)CC)C(=O)N[C@@H](CCCCNC(C)=O)C(=O)N[C@H](CC(N)=O)Cc1ccccc1` [compound 71], with more than 5000 nM; and `CCCCCCCCCCCCCCCC(=O)NCCCCCC(=O)NCCCC[C@H](NC(=O)[C@@H](NC(=O)[C@H](C)NC(=O)[C@@H]1CCCN1C(=O)[C@@H](NC(=O)[C@H](Cc1cn(C)cn1)NC(=O)[C@@H](NC(=O)[C@H](CC(C)C)NC(=O)CC(C)C)[C@@H](C)O)C(c1ccccc1)c1ccccc1)[C@@H](C)CC)C(=O)N[C@H](CC(N)=O)Cc1ccccc1` [compound 45] (Isovaleryl-LT[His(τ-Me)][Dip]PAIK([Ahx-Palmitoyl])[β3hF]-NH2), with more than 3000 nM; and `CCCCCCCCCCCCCCCC(=O)NCCCCCC(=O)NCCCC[C@H](NC(=O)[C@@H](NC(=O)[C@H](C)NC(=O)[C@@H]1CCCN1C(=O)[C@@H](NC(=O)CN(CCc1c[nH]cn1)C(=O)[C@@H](NC(=O)[C@H](CCC(=O)O)NC(=O)CC(C)C)[C@@H](C)O)C(c1ccccc1)c1ccccc1)[C@@H](C)CC)C(=O)N[C@H](CC(N)=O)Cc1ccccc1` [compound 88] (Isovaleryl-ET[Gly(N-CH2CH2-imidazol-4-yl)][Dip]PAIK([Ahx-Palmitoyl])[β3hF]-NH2), with more than 3000 nM.
Still for that read-out and setting: then `CC[C@H](C)[C@H](NC(=O)[C@H](C)NC(=O)[C@@H]1CCCN1C(=O)[C@@H](NC(=O)[C@H](Cc1cn(C)cn1)NC(=O)[C@@H](NC(=O)[C@H](CCc1nn[nH]n1)NC(=O)CC(C)C)[C@@H](C)O)C(c1ccccc1)c1ccccc1)C(=O)N[C@@H](CCCCNC(C)=O)C(=O)N[C@H](CC(=O)N[C@H](CCCCN)C(N)=O)Cc1ccccc1` [compound 41] (Isovaleryl-[X8]T[His(τ-Me)][Dip]PAIK(Ac)[β3hF][dK]-NH2), with more than 3000 nM; and `CC[C@H](C)[C@H](NC(=O)[C@H](C)NC(=O)[C@@H]1CCCN1C(=O)[C@@H](NC(=O)[C@H](Cc1c[nH]cn1)NC(=O)[C@@H](NC(=O)[C@H](CCc1nnn[nH]1)NC(=O)CC(C)C)[C@@H](C)O)C(c1ccccc1)c1ccccc1)C(=O)N[C@@H](CCCCNC(C)=O)C(=O)N[C@H](CC(=O)N[C@H](CCCCN)C(=O)N[C@@H](C)C(N)=O)Cc1ccccc1` [compound 38] (Isovaleryl-[X15]TH[Dip]PAIK(Ac)[β3hF][dK]A-NH2), with 117 nM; and `CCCCCCCCCCCCCCCC(=O)NCCOCCOCCOCCOCCC(=O)NCCCC[C@H](NC(=O)[C@@H](NC(=O)[C@H](C)NC(=O)[C@@H]1CCCN1C(=O)[C@@H](NC(=O)[C@H](Cc1c[nH]cn1)NC(=O)[C@@H](NC(=O)[C@H](CCC(=O)O)NC(=O)CC(C)C)[C@@H](C)O)C(c1ccccc1)c1ccccc1)[C@@H](C)CC)C(=O)N[C@H](CC(N)=O)Cc1ccccc1` [compound 95] (Isovaleryl-ETH[Dip]PAIK([PEG4-Palmitoyl])[β3hF]-NH2), with 32.7 nM.
On the same count and under the same terms, then `CCCCCCCCCCCCCCCC(=O)NCCCCCC(=O)NCCOCCOCC(=O)NCCOCCOCC(=O)NCCCC[C@H](NC(=O)[C@@H](NC(=O)[C@H](C)NC(=O)[C@@H]1CCCN1C(=O)[C@@H](NC(=O)[C@H](Cc1c[nH]cn1)NC(=O)[C@@H](NC(=O)[C@H](CCC(=O)O)NC(=O)CC(C)C)[C@@H](C)O)C(c1ccccc1)c1ccccc1)[C@@H](C)CC)C(=O)N[C@H](CC(N)=O)Cc1ccccc1` [compound 101] (Isovaleryl-ETH[Dip]PAIK([AEEA-AEEA-Ahx-Palmitoyl])[β3hF]-NH2), with 63.5 nM.
Consider `CC[C@H](C)[C@H](NC(=O)[C@H](C)NC(=O)[C@@H]1CCCN1C(=O)[C@@H](NC(=O)[C@H](Cc1cn(C)cn1)NC(=O)[C@@H](NC(=O)[C@H](Cc1nn[nH]n1)NC(=O)CC(C)C)[C@@H](C)O)C(c1ccccc1)c1ccccc1)C(=O)N[C@@H](CCCCNC(C)=O)C(=O)N[C@H](CC(=O)N[C@H](CCCCN)C(=O)N[C@@H](C)C(N)=O)Cc1ccccc1` [compound 39] (Isovaleryl-[Ala(1H-tetrazol-5-yl)]T[His(τ-Me)][Dip]PAIK(Ac)[β3hF][dK]A-NH2), for which the DC50 is more than 3000 nM.

The same assay, now with this note: Table 6B; read-out: FPN IC50.
On to `CCCCCCCCCCCCCCCC(=O)NCCCCCC(=O)NCCCC[C@H](NC(=O)C[C@H](Cc1ccccc1)NC(=O)[C@@H](CCCCN)NC(=O)[C@@H](NC(=O)[C@H](C)NC(=O)[C@@H]1CCCN1C(=O)[C@H](C)NC(=O)[C@H](Cc1c[nH]cn1)NC(=O)[C@@H](NC(=O)[C@H](CCC(=O)O)NC(=O)CC(C)C)[C@@H](C)O)[C@@H](C)CC)C(=O)N[C@H](CCCCN)C(=O)N[C@@H](C)C(N)=O` [compound 151] (Isovaleryl-ETHAPAI[dK][β3hF]K([Ahx-Palmitoyl])[dK]A-NH2), for which the DC50 is more than 3000 nM.

Staying with this assay, now noted: ferroportin-GFP HEK293 cells, compound incubated at least 18 hours; read-out: FPN IC50.
As for `CCCCCCCCCCCCCCCC(=O)NCCCCCC(=O)NCCCC[C@H](NC(=O)[C@@H](NC(=O)[C@H](CC(C)C)NC(=O)[C@@H]1CCCN1C(=O)[C@@H](NC(=O)[C@H](Cc1c[nH]cn1)NC(=O)[C@@H](NC(=O)[C@H](CCC(=O)O)NC(=O)CC(C)C)[C@@H](C)O)C(c1ccccc1)c1ccccc1)[C@@H](C)CC)C(=O)N[C@@H](CC(C)C)C(N)=O` [compound 205] (Isovaleryl-ETH[Dip]PLIK([Ahx-Palmitoyl])L-NH2), the DC50 is 37.4 nM.
The same measure, in the same setting: under `CCCNC(=O)[C@H](CCCCNC(=O)COCCOCCNC(=O)COCCOCCNC(=O)CC[C@H](NC(=O)CCCCCCCCCCCCCCCCC(=O)O)C(=O)O)NC(=O)[C@@H](NC(=O)[C@H](Cc1c[nH]cn1)NC(=O)[C@@H](NC(=O)[C@H](CC(C)C)NC(=O)CC(C)C)[C@@H](C)O)C(c1ccccc1)c1ccccc1` [compound 228] (Isovaleryl-LTH[Dip]K([AEEA-AEEA-γGlu-C18 diacid])-NHPr) stands more than 3000 nM; under `CCCCCCCCCCCCCC(=O)NCCCCCC(=O)NCCCC[C@H](NC(=O)[C@@H](NC(=O)[C@H](C)NC(=O)[C@@H]1CCCN1C(=O)[C@H](Cc1ccccc1)NC(=O)[C@H](Cc1c[nH]cn1)NC(=O)[C@@H](NC(=O)[C@H](CCC(=O)O)NC(=O)CC(C)C)[C@@H](C)O)[C@@H](C)CC)C(=O)N[C@@H](Cc1ccccc1)C(=O)N[C@@H](CCC(=O)O)C(=O)N1CCC[C@H]1C(=O)N[C@@H](CCCNC(=N)N)C(=O)N[C@H](CO)C(N)=O` [compound 247] (Isovaleryl-ETHFPAIK([Ahx-Myristoyl])FEPR[dS]-NH2), 1160 nM.
`CCCCCCCCCCCCCCCC(=O)NCCCCCC(=O)NCCCC[C@H](NC(=O)CC(C)C)C(=O)N[C@H](C(=O)N[C@@H](Cc1c[nH]cn1)C(=O)N[C@H](C(=O)N1CCC[C@H]1C(=O)N[C@@H](C)C(=O)N[C@H](C(=O)N[C@H](CCCCN)C(=O)N[C@H](CC(N)=O)Cc1ccccc1)[C@@H](C)CC)C(c1ccccc1)c1ccccc1)[C@@H](C)O` [compound 203] (Isovaleryl-K([Ahx-Palmitoyl])TH[Dip]PAI[dK][β3hF]-NH2): the DC50 is 654 nM.
Still for that read-out and setting: under `CCCCCCCCCC(=O)NCCCCCC(=O)NCCCC[C@H](NC(=O)[C@@H](NC(=O)[C@H](C)NC(=O)[C@@H]1CCCN1C(=O)[C@H](Cc1ccccc1)NC(=O)[C@H](Cc1c[nH]cn1)NC(=O)[C@@H](NC(=O)[C@H](CCC(=O)O)NC(=O)CC(C)C)[C@@H](C)O)[C@@H](C)CC)C(=O)N[C@@H](Cc1ccccc1)C(=O)N[C@@H](CCC(=O)O)C(=O)N1CCC[C@H]1C(=O)N[C@@H](CCCNC(=N)N)C(=O)N[C@@H](CO)C(=O)N[C@@H](CCCCN)C(=O)NCC(=O)N[C@@H](C)C(=O)N[C@@H](CCCCN)C(N)=O` [compound 244] (Isovaleryl-ETHFPAIK([Ahx-Decanoyl])FEPRSKGAK-NH2) stands more than 3000 nM; under `CCCCCCCCCCCCCC(=O)NCCCCCC(=O)NCCCC[C@H](NC(=O)[C@@H](NC(=O)[C@H](C)NC(=O)[C@@H]1CCCN1C(=O)[C@H](Cc1ccccc1)NC(=O)[C@H](Cc1c[nH]cn1)NC(=O)[C@@H](NC(=O)[C@H](CCC(=O)O)NC(=O)CC(C)C)[C@@H](C)O)[C@@H](C)CC)C(=O)N[C@@H](Cc1ccccc1)C(=O)N[C@@H](CCC(=O)O)C(=O)N1CCC[C@H]1C(=O)N[C@@H](CCCNC(=N)N)C(=O)N[C@@H](CO)C(=O)N[C@@H](CCCCN)C(=O)NCC(=O)N[C@H](C)C(N)=O` [compound 246] (Isovaleryl-ETHFPAIK([Ahx-Myristoyl])FEPRSKG[dA]-NH2), 1070 nM.
Same read-out and setting: then `CC(C)CC(=O)N[C@@H](CCC(=O)O)C(=O)N[C@H](C(=O)N[C@@H](Cc1c[nH]cn1)C(=O)N[C@H](C(=O)N1CCC[C@H]1C(=O)N[C@H](CCCCNC(=O)COCCOCCNC(=O)COCCOCCNC(=O)CCCCCNC(=O)CCCCCCCCCCCCCCCCC(=O)O)C(=O)N[C@H](CC(N)=O)Cc1ccccc1)C(c1ccccc1)c1ccccc1)[C@@H](C)O` [compound 214], with 86.8 nM.
